Literature values in patent publication US20140227392A1, “BEER AND RELEVANT PRODUCTION METHOD” (FARCHIONI OLII - S.P.A., priority 2011, published 2014).

Settings: compared with its precursor daidzein

## Oc1ccc([C@H]2COc3cc(O)ccc3C2)cc1 [S-(−) equol]
  antioxidant activity: significantly greater in antioxidant activity than its precursor
